Columns and labels:
Mus musculus [1] = test: Antinociceptive activity in Swiss mouse assessed as inhibition of acetic acid-induced abdominal constriction administered 30 to 60 mins prior to acetic acid challenge measured over 20 mins by writhing test; assay type: functional; conditions: Abdomen; for ED50: read-out: ID50 (the source's name)
Mus musculus [2] = test: Antinociceptive activity in Swiss mouse assessed as inhibition of acetic acid-induced abdominal constriction at 30 mg/kg administered 30 to 60 mins prior to acetic acid challenge measured over 20 mins by writhing test; assay type: functional, Abdomen
Mus musculus [3] = test: Antinociceptive activity in Swiss mouse assessed as inhibition of acetic acid-induced abdominal constriction at 10 mg/kg administered 30 to 60 mins prior to acetic acid challenge measured over 20 mins by writhing test; assay type: functional, Abdomen

| Structure (SMILES) | ED50 (Mus musculus [1]) | Imax (Mus musculus [2]) | Imax (Mus musculus [3]) | inhibition (Mus musculus [1]) |
| --- | --- | --- | --- | --- |
| O=C(CC1OC(=O)c2ccccc21)c1ccc(Cl)c(Cl)c1 (configuration not stated) | 34.6 µmol/kg | 90.7% |  |  |
| COc1ccc(C(=O)CC2OC(=O)c3ccccc32)cc1OC (configuration not stated) |  |  | 49.4% |  |
| O=C(CC1OC(=O)c2ccccc21)c1ccc(Cl)cc1 (configuration not stated) | 33.7 µmol/kg | 97.7% | 73.5% | Dose-dependent effect |

Reference: ChEMBL document CHEMBL2163320, “Benzofuranones as potential antinociceptive agents: structure-activity relationships” (2012)
